# ChEMBL document CHEMBL2034891, “Discovery, design and synthesis of Y-shaped peroxisome proliferator-activated receptor δ agonists as potent anti-obesity agents in vivo” (Eur J Med Chem, 2012)
# How the values were obtained:
# [1] = biological target: T1, Peroxisome proliferator-activated receptor alpha (Homo sapiens, UniProt Q07869); assay: Transactivation activity at human PPARalpha expressed in african green monkey CV1 cells after 24 hrs by luciferase reporter gene assay; format: cell-based, CV-1
# T1 sequence (Q07869 whole entry): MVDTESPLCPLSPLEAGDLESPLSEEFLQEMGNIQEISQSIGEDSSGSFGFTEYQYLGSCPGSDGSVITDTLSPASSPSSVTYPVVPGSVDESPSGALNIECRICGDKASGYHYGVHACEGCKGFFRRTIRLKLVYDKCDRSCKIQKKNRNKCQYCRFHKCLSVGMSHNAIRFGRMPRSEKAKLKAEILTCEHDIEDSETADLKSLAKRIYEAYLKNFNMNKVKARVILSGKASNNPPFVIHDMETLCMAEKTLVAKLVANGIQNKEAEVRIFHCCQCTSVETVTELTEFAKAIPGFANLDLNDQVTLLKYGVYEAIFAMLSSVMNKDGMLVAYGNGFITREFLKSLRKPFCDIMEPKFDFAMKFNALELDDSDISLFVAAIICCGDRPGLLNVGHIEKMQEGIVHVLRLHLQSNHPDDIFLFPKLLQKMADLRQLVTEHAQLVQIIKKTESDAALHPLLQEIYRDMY
# [2] = biological target: T2, Peroxisome proliferator-activated receptor gamma (Homo sapiens, UniProt P37231); assay: Transactivation activity at human PPARgamma expressed in african green monkey CV1 cells after 24 hrs by luciferase reporter gene assay; format: cell-based, CV-1
# T2 sequence (P37231 whole entry): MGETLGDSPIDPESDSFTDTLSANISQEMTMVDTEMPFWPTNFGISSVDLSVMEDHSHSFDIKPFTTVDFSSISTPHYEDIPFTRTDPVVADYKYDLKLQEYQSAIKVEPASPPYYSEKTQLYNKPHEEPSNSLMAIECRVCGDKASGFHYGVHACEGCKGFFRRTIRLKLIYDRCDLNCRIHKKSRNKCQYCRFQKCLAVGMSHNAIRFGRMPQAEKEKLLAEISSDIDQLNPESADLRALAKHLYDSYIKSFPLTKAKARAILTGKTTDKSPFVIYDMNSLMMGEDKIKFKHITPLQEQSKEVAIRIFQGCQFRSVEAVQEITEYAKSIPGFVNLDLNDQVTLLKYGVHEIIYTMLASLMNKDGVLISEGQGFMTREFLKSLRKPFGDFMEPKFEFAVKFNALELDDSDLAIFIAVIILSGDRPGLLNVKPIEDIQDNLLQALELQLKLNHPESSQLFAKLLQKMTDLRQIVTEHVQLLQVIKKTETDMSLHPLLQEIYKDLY
# [3] = biological target: T3, Peroxisome proliferator-activated receptor delta (Homo sapiens, UniProt Q03181); assay: Transactivation activity at human PPARdelta expressed in african green monkey CV1 cells after 24 hrs by luciferase reporter gene assay; format: cell-based, CV-1
# T3 sequence (Q03181 whole entry): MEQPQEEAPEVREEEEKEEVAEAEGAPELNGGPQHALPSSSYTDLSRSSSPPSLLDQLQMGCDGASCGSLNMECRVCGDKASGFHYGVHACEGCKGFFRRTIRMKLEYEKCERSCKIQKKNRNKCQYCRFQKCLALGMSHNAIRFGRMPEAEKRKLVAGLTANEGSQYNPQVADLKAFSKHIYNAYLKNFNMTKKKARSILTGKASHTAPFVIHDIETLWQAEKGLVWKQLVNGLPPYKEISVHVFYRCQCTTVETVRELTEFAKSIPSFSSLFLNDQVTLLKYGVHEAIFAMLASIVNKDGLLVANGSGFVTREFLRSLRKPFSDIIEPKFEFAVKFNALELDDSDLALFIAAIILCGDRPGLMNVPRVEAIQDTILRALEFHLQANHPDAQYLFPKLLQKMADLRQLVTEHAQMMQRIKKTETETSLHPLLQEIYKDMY
# [4] = species on record: Homo sapiens; assay: Selectivity ratio of EC50 for human PPARalpha to EC50 for human PPARdelta
SMILES,EC50 [1] [µM],EC50 [2] [µM],EC50 [3] [µM],Ratio EC50 [4]
Cc1cc(SC(CCCCCc2ccccc2)c2sc(-c3ccc(C(F)(F)F)cc3)nc2C)ccc1OCC(=O)O (configuration not stated),> 10,> 10,–,–
Cc1cc(SC(CCCc2ccccc2)c2sc(-c3ccc(C(F)(F)F)cc3)nc2C)ccc1OCC(=O)O (configuration not stated),> 10,> 10,–,–
Cc1cc(SC(c2sc(-c3ccc(C(F)(F)F)cc3)nc2C)C(c2ccccc2)c2ccccc2)ccc1OCC(=O)O (configuration not stated),> 10,> 10,0.523,–
Cc1cc(SC(CCCCCCCCCCc2ccccc2)c2sc(-c3ccc(C(F)(F)F)cc3)nc2C)ccc1OCC(=O)O (configuration not stated),> 10,> 10,–,–
Cc1cc(SC(Cc2c(Cl)cccc2Cl)c2sc(-c3ccc(C(F)(F)F)cc3)nc2C)ccc1OCC(=O)O (configuration not stated),> 10,> 10,0.0028,10000
Cc1cc(SC(Cc2c(F)c(F)c(F)c(F)c2F)c2sc(-c3ccc(C(F)(F)F)cc3)nc2C)ccc1OCC(=O)O (configuration not stated),> 10,> 10,0.0081,10000
Cc1cc(SC(Cc2cccc3ccccc23)c2sc(-c3ccc(C(F)(F)F)cc3)nc2C)ccc1OCC(=O)O (configuration not stated),> 10,> 10,0.49,–

# Results, then the compound that gave them:
EC50 [1] [µM],EC50 [2] [µM],EC50 [3] [µM],Ratio EC50 [4],SMILES
> 10,> 10,–,–,Cc1cc(SC(CCCCc2ccccc2)c2sc(-c3ccc(C(F)(F)F)cc3)nc2C)ccc1OCC(=O)O (configuration not stated)
> 10,> 10,0.0067,–,Cc1cc(SC(Cc2cc(F)c(F)c(F)c2)c2sc(-c3ccc(C(F)(F)F)cc3)nc2C)ccc1OCC(=O)O (configuration not stated)
> 10,> 10,0.0167,10000,Cc1cc(SC(Cc2cc(F)ccc2F)c2sc(-c3ccc(C(F)(F)F)cc3)nc2C)ccc1OCC(=O)O (configuration not stated)
> 10,> 10,–,–,Cc1cc(SC(CCCCCCCc2ccccc2)c2sc(-c3ccc(C(F)(F)F)cc3)nc2C)ccc1OCC(=O)O (configuration not stated)
0.592,> 10,0.0011,–,Cc1cc(SC(CC(C)C)c2sc(-c3ccc(C(F)(F)F)cc3)nc2C)ccc1OCC(=O)O (configuration not stated)
0.136,> 10,0.0018,–,Cc1cc(SC(C)c2sc(-c3ccc(C(F)(F)F)cc3)nc2C)ccc1OCC(=O)O (configuration not stated)
